# Measured values from US10316035B2, “Triazolopyridine inhibitors of myeloperoxidase” (BRISTOL-MYERS SQUIBB COMPANY, priority 2015, dated 2019).
# Biological target: T1, myeloperoxidase (MPO) (Homo sapiens, UniProt P05164)
# T1 sequence (P05164 49-745): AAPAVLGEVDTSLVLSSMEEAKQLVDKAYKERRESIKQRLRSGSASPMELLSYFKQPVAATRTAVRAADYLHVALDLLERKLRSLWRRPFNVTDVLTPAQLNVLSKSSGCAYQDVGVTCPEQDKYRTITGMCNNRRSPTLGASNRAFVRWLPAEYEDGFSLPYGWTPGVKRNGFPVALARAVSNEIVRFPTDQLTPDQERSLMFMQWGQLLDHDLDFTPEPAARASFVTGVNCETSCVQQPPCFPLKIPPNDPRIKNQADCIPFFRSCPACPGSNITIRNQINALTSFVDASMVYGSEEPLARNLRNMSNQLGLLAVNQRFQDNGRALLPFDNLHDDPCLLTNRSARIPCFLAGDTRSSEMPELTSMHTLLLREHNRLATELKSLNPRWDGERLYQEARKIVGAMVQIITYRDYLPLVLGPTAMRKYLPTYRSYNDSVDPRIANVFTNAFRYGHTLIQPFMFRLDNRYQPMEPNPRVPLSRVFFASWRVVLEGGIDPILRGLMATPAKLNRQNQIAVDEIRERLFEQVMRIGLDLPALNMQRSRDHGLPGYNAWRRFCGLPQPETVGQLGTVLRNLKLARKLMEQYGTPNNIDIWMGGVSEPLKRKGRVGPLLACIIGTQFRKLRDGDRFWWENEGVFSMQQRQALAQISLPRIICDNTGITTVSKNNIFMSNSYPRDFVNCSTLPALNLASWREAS
# Assay: MPO peroxidation assay (Amplex Red assay)
# Format: biochemical
# Conditions: not given
# Protocol: MPO Peroxidation Assay (Amplex Red Assay)
# MPO peroxidation activity was measured in 100 mM KPi (pH 7.4) by utilizing the non-fluorescent reagent Amplex Red (Invitrogen catalog # A12222) which can be oxidized to the highly fluorescent resorufin. Amplex Red is oxidized by the peroxidase action of MPO to resorufin. Reactions were carried out in 50 μL total volume by adding a 25 μL mixture of 200 pM myeloperoxidase and 40 nM H2O2(Sigma #349887) to 100 nL inhibitor in 100% DMSO in a 384 well Perkin Elmer Optiplate. Enzyme and compound were preincubated for ten minutes at room temperature.
# After the ten minute preincubation, 25 μL of an Amplex Red mixture containing 200 μM Amplex Red and 10 mM H2O2 was added to the plate. Kinetic determinations were carried out immediately on a Perkin Elmer Envision (15 minute kinetic read, Ex: 535 nm, Em: 590 nm).
# IC50 values were calculated by determining the slope of the linear portion of the kinetic trace ([…]), and using that calculated slope to determine % inhibition occurring at each concentration of inhibitor using the following equation:
# [formula] where A=minimal Y value (activity level of inhibited sample), B=maximal Y value (activity level of uninhibited sample), C=Log IC50, D=Hill Slope, x=concentration of inhibitor. MPO Chlorination Assay (APF Assay)
row,Compound,IC50 [nM]
1,"Nc1cc(OCc2ccccc2F)c2nn[nH]c2n1 [Example 55, 7-(2-Fluorobenzyloxy)-3H-[1,2,3]triazolo[4,5-b]pyridin-5-amine]",1 to 100
2,"Cc1c(COc2cc(N)nc3[nH]nnc23)cccc1-c1cccc(F)c1 [Example 68, 7-((3′-Fluoro-2-methylbiphenyl-3-yl)methoxy)-3H-[1,2,3]triazolo[4,5-b]pyridin-5-amine]",1 to 100
3,"Nc1cc(OCc2cc(-c3cccc(F)c3)ccc2Cl)c2nn[nH]c2n1 [Example 70, 7-((4-Chloro-3′-fluorobiphenyl-3-yl)methoxy)-3H-[1,2,3]triazolo[4,5-b]pyridin-5-amine]",1 to 100

# Same assay, conditions: MPO peroxidation, potency range class; read-out: Amplex Red IC50
row,Compound,IC50 [nM]
1,"COC(=O)c1cccc(COc2cc(N)nc3[nH]nnc23)c1Cl [Example 24, Methyl 3-((5-amino-3H-[1,2,3]triazolo[4,5-b]pyridin-7-yloxy)methyl)-2-chlorobenzoate]",1 to 100
2,"Nc1cc(OCc2cccc(C(=O)N3CCOCC3)c2)c2nn[nH]c2n1 [Example 25, (3-((5-Amino-3H-[1,2,3]triazolo[4,5-b]pyridin-7-yloxy)methyl)phenyl)(morpholino)methanone]",101 to 999
3,COc1c(COc2cc(N)nc3[nH]nnc23)cccc1C(F)(F)F [Example 26],1 to 100
4,"Nc1cc(OCc2cc(OC(F)(F)F)ccc2F)c2nn[nH]c2n1 [Example 27, 7-(2-Fluoro-5-(trifluoromethoxy)benzyloxy)-3H-[1,2,3]triazolo[4,5-b]pyridin-5-amine]",1 to 100
5,"Nc1cc(OCc2cc(C(F)(F)F)ccc2Cl)c2nn[nH]c2n1 [Example 28, 7-(2-Chloro-5-(trifluoromethyl)benzyloxy)-3H-[1,2,3]triazolo[4,5-b]pyridin-5-amine]",1 to 100
6,"Nc1cc(OCc2cc(C(F)(F)F)cc(C(F)(F)F)c2)c2nn[nH]c2n1 [Example 29, 7-(3,5-Bis(trifluoromethyl)benzyloxy)-3H-[1,2,3]triazolo[4,5-b]pyridin-5-amine]",1 to 100
7,"COc1ccc(C(F)(F)F)cc1COc1cc(N)nc2[nH]nnc12 [Example 30, 7-(2-Methoxy-5-(trifluoromethyl)benzyloxy)-3H-[1,2,3]triazolo[4,5-b]pyridin-5-amine]",1 to 100
8,"Nc1cc(OCc2c(Cl)cccc2OC(F)(F)F)c2nn[nH]c2n1 [Example 31, 7-(2-Chloro-6-(trifluoromethoxy)benzyloxy)-3H-[1,2,3]triazolo[4,5-b]pyridin-5-amine]",1 to 100
9,"Nc1cc(OCc2cc(OC(F)F)ccc2F)c2nn[nH]c2n1 [Example 32, 7-(5-(Difluoromethoxy)-2-fluorobenzyloxy)-3H-[1,2,3]triazolo[4,5-b]pyridin-5-amine]",1 to 100
10,"NC(=O)c1cccc(COc2cc(N)nc3[nH]nnc23)c1Cl [Example 33, 3-((5-Amino-3H-[1,2,3]triazolo[4,5-b]pyridin-7-yloxy)methyl)-2-chlorobenzamide]",101 to 999
11,"COc1ccc(OC(F)(F)F)cc1COc1cc(N)nc2[nH]nnc12 [Example 35, 7-(2-Methoxy-5-(trifluoromethoxy)benzyloxy)-3H-[1,2,3]triazolo[4,5-b]pyridin-5-amine]",1 to 100
12,"Nc1cc(OCc2ccccc2OCC(=O)NCC2CC2)c2nn[nH]c2n1 [Example 37, 2-(2-((5-Amino-3H-[1,2,3]triazolo[4,5-b]pyridin-7-yloxy)methyl)phenoxy)-N-(cyclopropylmethyl)acetamide]",101 to 999
13,"Nc1cc(OCc2ccccc2Oc2ccccc2)c2nn[nH]c2n1 [Example 38, 7-(2-Phenoxybenzyloxy)-3H-[1,2,3]triazolo[4,5-b]pyridin-5-amine]",1 to 100
14,"COC(=O)c1ccc(F)c(COc2cc(N)nc3[nH]nnc23)c1 [Example 41, Methyl 3-((5-amino-3H-[1,2,3]triazolo[4,5-b]pyridin-7-yloxy)methyl)-4-fluorobenzoate]",1 to 100
15,"CS(=O)(=O)c1cc(Cl)cc(COc2cc(N)nc3[nH]nnc23)c1 [Example 44, 7-(3-Chloro-5-(methylsulfonyl)benzyloxy)-3H-[1,2,3]triazolo[4,5-b]pyridin-5-amine]",101 to 999
16,"Nc1cc(OCc2cccc(-n3cnc(C(F)F)n3)c2)c2nn[nH]c2n1 [Example 45, 7-(3-(3-(Difluoromethyl)-1H-1,2,4-triazol-1-yl)benzyloxy)-3H-[1,2,3]triazolo[4,5-b]pyridin-5-amine]",1 to 100
17,"CN(C)S(=O)(=O)c1ccccc1-c1ccc(COc2cc(N)nc3[nH]nnc23)c(Cl)c1 [Example 46, 4′-((5-Amino-3H-[1,2,3]triazolo[4,5-b]pyridin-7-yloxy)methyl)-3′-chloro-N,N-dimethylbiphenyl-2-sulfonamide]",1 to 100

row,Compound,IC50 [nM]
1,"Nc1cc(OCc2cc(C(=O)NCc3ccccc3)ccc2F)c2nn[nH]c2n1 [Example 47, 3-((5-Amino-3H-[1,2,3]triazolo[4,5-b]pyridin-7-yloxy)methyl)-N-benzyl-4-fluorobenzamide]",1 to 100
2,"Nc1cc(OCc2cc(C(=O)NC3CC3)ccc2F)c2nn[nH]c2n1 [Example 48, 3-((5-Amino-3H-[1,2,3]triazolo[4,5-b]pyridin-7-yloxy)methyl)-N-cyclopropyl-4-fluorobenzamide]",1 to 100
3,"Nc1cc(OCc2cc(C(=O)Nc3cccc(Cl)c3)ccc2F)c2nn[nH]c2n1 [Example 49, 3-((5-Amino-3H-[1,2,3]triazolo[4,5-b]pyridin-7-yloxy)methyl)-N-(3-chlorophenyl)-4-fluorobenzamide]",1 to 100
4,"Nc1cc(OCC2CCc3ccccc3C2)c2nn[nH]c2n1 (stereo not drawn) [Example 51, 7-((1,2,3,4-Tetrahydronaphthalen-2-yl)methoxy)-3H-[1,2,3]triazolo[4,5-b]pyridin-5-amine]",101 to 999
5,"CC1CC(c2ccccc2)CCC1COc1cc(N)nc2[nH]nnc12 (stereo not drawn) [Example 53, 7-((2-Methyl-4-phenylcyclohexyl)methoxy)-3H-[1,2,3]triazolo[4,5-b]pyridin-5-amine]",101 to 999
6,"NC(=O)c1cccc(COc2cc(N)nc3[nH]nnc23)c1 [Example 56, 3-((5-Amino-3H-[1,2,3]triazolo[4,5-b]pyridin-7-yloxy)methyl)benzamide]",101 to 999
7,"COc1ccc(Br)cc1COc1cc(N)nc2[nH]nnc12 [Example 58, 7-(5-Bromo-2-methoxybenzyloxy)-3H-[1,2,3]triazolo[4,5-b]pyridin-5-amine]",1 to 100
8,"COc1c(Br)cccc1COc1cc(N)nc2[nH]nnc12 [Example 59, 7-(3-Bromo-2-methoxybenzyloxy)-3H-[1,2,3]triazolo[4,5-b]pyridin-5-amine]",1 to 100
9,"Cc1c(Br)cccc1COc1cc(N)nc2[nH]nnc12 [Example 60, 7-(3-Bromo-2-methylbenzyloxy)-3H-[1,2,3]triazolo[4,5-b]pyridin-5-amine]",1 to 100
10,"Nc1cc(OCc2cccc(Br)c2F)c2nn[nH]c2n1 [Example 62, 7-(3-Bromo-2-fluorobenzyloxy)-3H-[1,2,3]triazolo[4,5-b]pyridin-5-amine]",1 to 100
11,"Cc1c(COc2cc(N)nc3[nH]nnc23)cccc1-c1cncc(F)c1 [Example 63, 7-(3-(5-Fluoropyridin-3-yl)-2-methylbenzyloxy)-3H-[1,2,3]triazolo[4,5-b]pyridin-5-amine]",1 to 100
12,"COc1ccc(-c2cccc(COc3cc(N)nc4[nH]nnc34)c2)c(F)c1 [Example 64, 7-((2′-Fluoro-4′-methoxybiphenyl-3-yl)methoxy)-3H-[1,2,3]triazolo[4,5-b]pyridin-5-amine]",101 to 999
13,"Cc1ccc(-c2cccc(F)c2)cc1COc1cc(N)nc2[nH]nnc12 [Example 65, 7-((3′-Fluoro-4-methylbiphenyl-3-yl)methoxy)-3H-[1,2,3]triazolo[4,5-b]pyridin-5-amine]",1 to 100
14,"COc1ccc(-c2cccc(F)c2)cc1COc1cc(N)nc2[nH]nnc12 [Example 66, 7-((3′-Fluoro-4-methoxybiphenyl-3-yl)methoxy)-3H-[1,2,3]triazolo[4,5-b]pyridin-5-amine]",1 to 100
15,"COc1c(COc2cc(N)nc3[nH]nnc23)cccc1-c1cccc(F)c1 [Example 67, 7-((3′-Fluoro-2-methoxybiphenyl-3-yl)methoxy)-3H-[1,2,3]triazolo[4,5-b]pyridin-5-amine]",101 to 999
16,"Cc1c(COc2cc(N)nc3[nH]nnc23)cccc1-c1ccccc1 [Example 69, 7-((2-Methylbiphenyl-3-yl)methoxy)-3H-[1,2,3]triazolo[4,5-b]pyridin-5-amine]",1 to 100
